Data from patent US10294202B2, “Pyrrolidinones as herbicides” (FMC Corporation, priority 2013, dated 2019).
Read-outs that look alike come from different tables or passages of the source.

Assays:
Assay in all cases: Test A pre-/postemergence herbicide test
barnyardgrass = format: in vivo, Echinochloa crus-galli; settings: for pest or weed control at 1000 g/ha: Echinochloa crus-galli, 240 h, read-out: Plant response rating, Barnyardgrass
Text: (§1) Seeds of plant species selected from bamyardgrass (Echinochloa crus-galli), kochia (Kochia scoparia), ragweed (common ragweed, Ambrosia elatior), ryegrass, Italian (Italian ryegrass, Lolium multiflorum), crabgrass, large (large crabgrass Digitaria sanguinalis), giant foxtail (Setaria faberii), morningglory (Ipomoea spp.), pigweed (Amaranthus retroflexus), velvetleaf (Abutilon theophrasti), wheat (Triticum aestivum), and corn (Zea mays) were planted into a blend of loam soil and sand and treated preemergence with a directed soil spray using test chemicals formulated in a non-phytotoxic solvent mixture which included a surfactant. At the same time, plants selected from these crop and weed species and also blackgrass (Alopecurus myosuroides), and galium (catchweed bedstraw, Galium aparine) were planted in pots containing the same blend of loam soil and sand and treated with postemergence applications of test chemicals formulated in the same manner. Plants ranged in height from 2 to 10 cm and were in the one- to two-leaf stage for the postemergence treatment. Treated plants and untreated controls were maintained in a greenhouse for approximately 10 days, after which time all treated plants were compared to untreated controls and visually evaluated for injury. Plant response ratings, summarized in Table A, are based on a 0 to 100 scale where 0 is no effect and 100 is complete control. A dash (-) response means no test result.

crabgrass, large = format: in vivo, Digitaria sanguinalis; settings: for pest or weed control at 1000 g/ha: Digitaria sanguinalis, 240 h, read-out: Plant response rating, Crabgrass, Large
Text: as §1

giant foxtail = format: in vivo, Setaria faberii; settings: for pest or weed control at 1000 g/ha: Setaria faberi, 240 h, read-out: Plant response rating, Foxtail, Giant
Text: as §1

morningglory = format: in vivo, Ipomoea spp.; settings: for pest or weed control at 1000 g/ha: Ipomoea, 240 h, read-out: Plant response rating, Morningglory
Text: as §1

pigweed = format: in vivo, Amaranthus retroflexus; settings: for pest or weed control at 1000 g/ha: Amaranthus retroflexus, 240 h, read-out: Plant response rating, Pigweed
Text: as §1

velvetleaf = format: in vivo, Abutilon theophrasti; settings: for pest or weed control at 1000 g/ha: Abutilon theophrasti, 240 h, read-out: Plant response rating, Velvetleaf
Text: as §1

wheat = format: in vivo, Triticum aestivum; settings: for plant injury at 1000 g/ha: Triticum aestivum, 240 h, read-out: Plant response rating, Wheat
Text: as §1

corn = format: in vivo, Zea mays; settings: for Corn plant response rating (crop injury, 0 = no effect, 100 = complete kill) at 1000 g/ha: Zea mays, 240 h
Text: as §1

[1] = Postemergence, 1000 g ai/ha, 0 to 100 scale (0 no effect, 100 complete control)
[2] = Preemergence, 1000 g ai/ha, visual rating on 0 to 100 scale (0 no effect, 100 complete control), approx. 10 days
[3] = Postemergence, 125 g ai/ha, 0 to 100 scale, 0 no effect, 100 complete control
[4] = Postemergence, 500 g ai/ha, 0 to 100 scale (0 no effect, 100 complete control)
[5] = Preemergence, 125 g ai/ha, visual rating on 0 to 100 scale (0 no effect, 100 complete control)
[6] = preemergence, 500 g ai/ha, 0 to 100 scale (0 no effect, 100 complete control)
[7] = preemergence, 500 g ai/ha, 0 to 100 scale
[8] = preemergence, 1000 g ai/ha, 0 to 100 scale (0 no effect, 100 complete control)
[9] = preemergence, 1000 g ai/ha, 0 to 100 scale
[10] = post-emergence, Postemergence, 1000 g ai/ha, 0 to 100 scale (0 no effect, 100 complete control)
[11] = pre-emergence, Preemergence, 1000 g ai/ha, visual rating on 0 to 100 scale (0 no effect, 100 complete control), approx. 10 days

O=C1NCC(c2ccc(F)c(F)c2)C1C(=O)Nc1cccc(=O)[nH]1 (racemic) [Compound 96]
Plant response rating, Barnyardgrass (barnyardgrass; [1]): 0 | Plant response rating, Barnyardgrass (barnyardgrass; [2]): 0 | Plant response rating, Crabgrass, Large (crabgrass, large; [1]): 0 | Plant response rating, Crabgrass, Large (crabgrass, large; [2]): 0 | Plant response rating, Foxtail, Giant (giant foxtail; [1]): 0 | Plant response rating, Foxtail, Giant (giant foxtail; [2]): 0 | Plant response rating, Morningglory (morningglory; [1]): 0 | Plant response rating, Morningglory (morningglory; [2]): 0 | Plant response rating, Pigweed (pigweed; [1]): 0 | Plant response rating, Pigweed (pigweed; [2]): 0 | Plant response rating, Velvetleaf (velvetleaf; [1]): 0 | Plant response rating, Velvetleaf (velvetleaf; [2]): 0 | Plant response rating, Wheat (wheat; [1]): 0 | Plant response rating, Wheat (wheat; [2]): 0 | Plant response rating, Corn (corn; [1]): 0 | Plant response rating, Corn (corn; [2]): 0

O=C1NCC(c2ccccc2)C1(Br)C(=O)Nc1ccc(Br)cc1F (centres unmarked) [Compound 94]
Plant response rating, Barnyardgrass (barnyardgrass; [3]): 0 | Plant response rating, Barnyardgrass (barnyardgrass; [4]): 0 | Barnyardgrass plant response rating (barnyardgrass; [5]): 0 | Plant response rating, Barnyardgrass (barnyardgrass; [6]): 0 | Plant response rating, Crabgrass, Large (crabgrass, large; [3]): 0 | Plant response rating, Crabgrass, Large (crabgrass, large; [4]): 0 | Crabgrass, Large plant response rating (crabgrass, large; [5]): 0 | Plant response rating, Crabgrass, Large (crabgrass, large; [7]): 50 | Plant response rating, Foxtail, Giant (giant foxtail; [3]): 0 | Plant response rating, Foxtail, Giant (giant foxtail; [4]): 0 | Foxtail, Giant plant response rating (giant foxtail; [5]): 0 | Plant response rating, Foxtail, Giant (giant foxtail; [7]): 0 | Plant response rating, Morningglory (morningglory; [3]): 0 | Plant response rating, Morningglory (morningglory; [4]): 0 | Morningglory plant response rating (morningglory; [5]): 0 | Plant response rating, Morningglory (morningglory; [7]): 0 | Plant response rating, Pigweed (pigweed; [3]): 0 | Plant response rating, Pigweed (pigweed; [4]): 0 | Pigweed plant response rating (pigweed; [5]): 0 | Plant response rating, Velvetleaf (velvetleaf; [3]): 0 | Plant response rating, Velvetleaf (velvetleaf; [4]): 0 | Velvetleaf plant response rating (velvetleaf; [5]): 0 | Plant response rating, Wheat (wheat; [3]): 0 | Plant response rating, Wheat (wheat; [4]): 0 | Wheat plant response rating (wheat; [5]): 0 | Plant response rating, Wheat (wheat; [7]): 0 | Plant response rating, Corn (corn; [3]): 0 | Plant response rating, Corn (corn; [4]): 0 | Corn plant response rating (corn; [5]): 0 | Plant response rating, Corn (corn; [7]): 0

Cn1cc(C2CNC(=O)C2C(=O)Nc2cccc(F)c2F)cn1 (racemic) [Compound 253]
Plant response rating, Barnyardgrass (barnyardgrass; [1]): 0 | Plant response rating, Barnyardgrass (barnyardgrass; [8]): 0 | Plant response rating, Crabgrass, Large (crabgrass, large; [1]): 20 | Plant response rating, Crabgrass, Large (crabgrass, large; [9]): 0 | Plant response rating, Foxtail, Giant (giant foxtail; [1]): 20 | Plant response rating, Foxtail, Giant (giant foxtail; [9]): 0 | Plant response rating, Morningglory (morningglory; [1]): 10 | Plant response rating, Morningglory (morningglory; [9]): 0 | Plant response rating, Pigweed (pigweed; [1]): 0 | Plant response rating, Pigweed (pigweed; [9]): 0 | Plant response rating, Velvetleaf (velvetleaf; [1]): 0 | Plant response rating, Velvetleaf (velvetleaf; [9]): 0 | Plant response rating, Wheat (wheat; [1]): 0 | Plant response rating, Wheat (wheat; [9]): 0 | Plant response rating, Corn (corn; [1]): 0 | Plant response rating, Corn (corn; [9]): 0

O=C1NCC(c2ccc(F)c(F)c2)C1C(=O)N(O)c1ccccc1 (centres unmarked) [Compound 71]
Plant response rating, Barnyardgrass (barnyardgrass; [1]): 50 | Plant response rating, Barnyardgrass (barnyardgrass; [2]): 50 | Plant response rating, Crabgrass, Large (crabgrass, large; [1]): 80 | Plant response rating, Crabgrass, Large (crabgrass, large; [2]): 80 | Plant response rating, Foxtail, Giant (giant foxtail; [1]): 60 | Plant response rating, Foxtail, Giant (giant foxtail; [2]): 60 | Plant response rating, Pigweed (pigweed; [1]): 0 | Plant response rating, Pigweed (pigweed; [2]): 0 | Plant response rating, Velvetleaf (velvetleaf; [1]): 0 | Plant response rating, Velvetleaf (velvetleaf; [2]): 0 | Plant response rating, Wheat (wheat; [1]): 0 | Plant response rating, Wheat (wheat; [2]): 0 | Plant response rating, Corn (corn; [1]): 0 | Plant response rating, Corn (corn; [2]): 0

O=C(Nc1ccccc1F)C1C(=O)N(O)CC1c1ccc(F)c(F)c1 (centres unmarked) [Compound 44, 4-(3,4-difluorophenyl)-N-(2-fluorophenyl)-1-hydroxy-2-oxo-3-pyrrolidinecarboxamide]
pest or weed control at 1000 g/ha (barnyardgrass; [10]): 60% | pest or weed control at 1000 g/ha (barnyardgrass; [11]): 40% | pest or weed control at 1000 g/ha (crabgrass, large; [10]): 50% | pest or weed control at 1000 g/ha (crabgrass, large; [11]): 90% | pest or weed control at 1000 g/ha (giant foxtail; [10]): 30% | pest or weed control at 1000 g/ha (giant foxtail; [11]): 70% | pest or weed control at 1000 g/ha (morningglory; [10]): 0% | pest or weed control at 1000 g/ha (morningglory; [11]): 0% | pest or weed control at 1000 g/ha (pigweed; [10]): 0% | pest or weed control at 1000 g/ha (pigweed; [11]): 0% | pest or weed control at 1000 g/ha (velvetleaf; [10]): 0% | pest or weed control at 1000 g/ha (velvetleaf; [11]): 0% | plant injury at 1000 g/ha (wheat; [10]): 0% | plant injury at 1000 g/ha (wheat; [11]): 0% | Corn plant response rating (crop injury, 0 = no effect, 100 = complete kill) at 1000 g/ha (corn; [10]): 0% | Corn plant response rating (crop injury, 0 = no effect, 100 = complete kill) at 1000 g/ha (corn; [11]): 0%

Cn1ccc(C2CNC(=O)C2C(=O)Nc2cccc(F)c2F)n1 (racemic) [Compound 192]
Plant response rating, Barnyardgrass (barnyardgrass; [1]): 0 | Plant response rating, Barnyardgrass (barnyardgrass; [8]): 0 | Plant response rating, Crabgrass, Large (crabgrass, large; [1]): 0 | Plant response rating, Crabgrass, Large (crabgrass, large; [9]): 0 | Plant response rating, Foxtail, Giant (giant foxtail; [1]): 0 | Plant response rating, Foxtail, Giant (giant foxtail; [9]): 0 | Plant response rating, Morningglory (morningglory; [1]): 0 | Plant response rating, Morningglory (morningglory; [9]): 0 | Plant response rating, Pigweed (pigweed; [1]): 0 | Plant response rating, Pigweed (pigweed; [9]): 0 | Plant response rating, Velvetleaf (velvetleaf; [1]): 0 | Plant response rating, Velvetleaf (velvetleaf; [9]): 0 | Plant response rating, Wheat (wheat; [1]): 0 | Plant response rating, Wheat (wheat; [9]): 0 | Plant response rating, Corn (corn; [1]): 0 | Plant response rating, Corn (corn; [9]): 0

N#Cc1ccccc1NC(=O)C1C(=O)NCC1c1ccccc1 (racemic) [Compound 86]
Plant response rating, Barnyardgrass (barnyardgrass; [3]): 0 | Plant response rating, Barnyardgrass (barnyardgrass; [4]): 20 | Barnyardgrass plant response rating (barnyardgrass; [5]): 0 | Plant response rating, Barnyardgrass (barnyardgrass; [6]): 40 | Plant response rating, Crabgrass, Large (crabgrass, large; [3]): 0 | Plant response rating, Crabgrass, Large (crabgrass, large; [4]): 60 | Crabgrass, Large plant response rating (crabgrass, large; [5]): 60 | Plant response rating, Crabgrass, Large (crabgrass, large; [7]): 80 | Plant response rating, Foxtail, Giant (giant foxtail; [3]): 0 | Plant response rating, Foxtail, Giant (giant foxtail; [4]): 10 | Foxtail, Giant plant response rating (giant foxtail; [5]): 20 | Plant response rating, Foxtail, Giant (giant foxtail; [7]): 60 | Plant response rating, Morningglory (morningglory; [3]): 0 | Plant response rating, Morningglory (morningglory; [4]): 0 | Morningglory plant response rating (morningglory; [5]): 0 | Plant response rating, Morningglory (morningglory; [7]): 0 | Plant response rating, Pigweed (pigweed; [3]): 0 | Plant response rating, Pigweed (pigweed; [4]): 0 | Pigweed plant response rating (pigweed; [5]): 0 | Plant response rating, Pigweed (pigweed; [7]): 0 | Plant response rating, Velvetleaf (velvetleaf; [3]): 0 | Plant response rating, Velvetleaf (velvetleaf; [4]): 0 | Velvetleaf plant response rating (velvetleaf; [5]): 0 | Plant response rating, Velvetleaf (velvetleaf; [7]): 0 | Plant response rating, Wheat (wheat; [3]): 0 | Plant response rating, Wheat (wheat; [4]): 0 | Wheat plant response rating (wheat; [5]): 0 | Plant response rating, Wheat (wheat; [7]): 0 | Plant response rating, Corn (corn; [3]): 0 | Plant response rating, Corn (corn; [4]): 0 | Corn plant response rating (corn; [5]): 0 | Plant response rating, Corn (corn; [7]): 20
